# Measurements taken from patent US20060160701A1, “Natural herbicidal agent containing momilactones A and B identified in and isolated from rice hulls” (Konkuk University Industrial Cooperation Corp., priority 2005, published 2006).
# Tests used:
# rice roots = conditions: derivatives of momilactones A and B; Kato et al., Phytochemistry 16, 1977; cited from earlier work
# lettuce seeds = conditions: derivatives of momilactones A and B; Kato et al., Phytochemistry 16, 1977; cited from earlier work
# Cyperus difformis L. = assay: Germination assay in culture tube (GACT), Cyperus difformis seeds; type: in vivo; conditions: I: Cyperus difformis L., seven days
# Procedure: (§1) The momilactones thus isolated and purified according to the method were dissolved in acetone containing a non-ionic surfactant, Tween-20, and diluted with ½ hunter medium, thus generating a growth/germination inhibition solution. The solution contained acetone and Tween-20 in final concentrations of 1% and 0.01% by weight, respectively. The acetone and Tween-20 were found not to cause growth or germination inhibition.
# (§2) Seeds of three weed species, Leptochloa chinensis L., Amaranthus retroflexus L. and Cyperus difformis L., which were collected on October 2002 and stored at −35° C. after floating matter was removed using distilled water, were used in this test.
# (§3) The weed seeds were surface-sterilized in a 1:10 (v/v) dilution of an aqueous hypochlorite solution for 10 min and washed with distilled water several times according to a method described by Choi et al. (CHOI, J. S. et al., Korean J. Weed Sci., 22, 339-413, 2002).
# (§4) 650 mg of sea sand was placed into disposable culture tubes (12×75 mm), which contained the growth/germination inhibition solution at concentrations of 4, 20, 100 and 1000 ppm. 2 mg of each seed of the three weed species was added to the tubes, and was then incubated in a growth chamber (25° C., 12 h photoperiod, 20 μmol/m^2s).
# (§5) After seven days, percentage germination of the weed seeds was determined. Using the percentage germination, the inhibitory effects of the growth/germination inhibition solution on germination and fresh weight of the seeds were evaluated. • Germination inhibition (%)=[(control−test group)/control]×100 • Fresh weight inhibition (%)=[(control−test group)/control]×100
# [1] = tested on: Amaranthus retroflexus L.; assay: Germination assay in culture tube (GACT), Amaranthus retroflexus seeds; type: in vivo; conditions: III: Amaranthus retroflexus L., seven days
# Procedure: as §1, §2, §3, §4, §5
# [2] = tested on: duckweed (Lemna paucicostata Hegelm 381); assay: Bioactivity assay using duckweed (Lemna assay); type: in vivo; conditions: 5 days; for Visual injury symptoms (%): scale 0 (no effect) to 100 (complete death)
# Procedure: as §1
# After 2 ml of the growth/germination inhibition solution, prepared in Example, was aliquotted in triplets into a 24-well plate, one duckweed plant having four fronds was transplanted into each well. The plate was incubated in a growth chamber (26° C., 14 h photoperiod, 50 μmol/m^2s) for 5 days. Herbicidal activity was determined by visual scoring and by measuring the chlorophyll content.
# The chlorophyll was extracted in DMSO (dimethyl sulfoxide), and absorbance was measured using a UV-VIS spectrophotometer. The chlorophyll content was determined based on the absorbance data according to a method described by Hiscox and Israelstam (Hiscox, J. D. and Israelstam, G. F., Can. J. Bot., 57, 1332-1334, 1979).
# The inhibitory effects of the compounds on chlorophyll content in duckweed were expressed as a percentage (%) of the corresponding values obtained for a control.
# Thus, a minus value indicates growth stimulation, and a plus value indicates growth inhibition. • Chlorophyll content (μg/ml)=2.367×(absorbance)^2+6.299×absorbance+0.169 (r=0.999) • Inhibition of chlorophyll content (%)=[(control-test group)/control]×100
# [3] = tested on: Leptochloa chinensis (L.) Ness; assay: Germination assay in culture tube (GACT), Leptochloa chinensis seeds; type: in vivo; conditions: II: Leptochloa chinensis (L.) Ness, seven days
# Procedure: as §1, §2, §3, §4, §5
# [4] = tested on: three weed species, Leptochloa chinensis L., Amaranthus retroflexus L. and Cyperus difformis L.; assay: Germination assay in culture tube (GACT), three weed species taken together; type: in vivo; conditions: 20 ppm
# Procedure: as §1, §2
# The weed seeds were surface-sterilized in a 1:10 (v/v) dilution of an aqueous hypochlorite solution for 10 min and washed with distilled water several times according to a method described by Choi et al. (CHOI, J. S. et al., Korean J. Weed Sci., 22, 339-413, 2002). […]
# as §5
# rice seedlings = conditions: Kato-Naguchi et al., Physiologia Plantarum 115, 2002; cited from earlier work
compound,measurement,setting,value
3-hydro momilactone A,inhibition of the growth of rice roots,rice roots,strongest inhibitory activity
same,inhibition of the germination of lettuce seeds,lettuce seeds,strongest inhibitory activity
C=C[C@]1(C)CC[C@@H]2C(=C[C@H]3OC(=O)[C@@]4(C)C(=O)CC[C@@]2(C)[C@@H]34)C1 [Momilactone A],Fresh weight inhibition (%),Cyperus difformis L.; 4 ppm,0%
same,Germination inhibition (%),Cyperus difformis L.; 4 ppm,20%
same,Fresh weight inhibition (%),Cyperus difformis L.; 20 ppm,100%
same,Germination inhibition (%),Cyperus difformis L.; 20 ppm,97.5%
same,Fresh weight inhibition (%),Cyperus difformis L.; 100 ppm,100%
same,Germination inhibition (%),Cyperus difformis L.; 100 ppm,100%
same,Fresh weight inhibition (%),Cyperus difformis L.; 1000 ppm,100%
same,Germination inhibition (%),Cyperus difformis L.; 1000 ppm,100%
same,Fresh weight inhibition (%),[1]; 4 ppm,0%
same,Germination inhibition (%),[1]; 4 ppm,20%
same,Fresh weight inhibition (%),[1]; 20 ppm,18.6%
same,Germination inhibition (%),[1]; 20 ppm,20%
same,Fresh weight inhibition (%),[1]; 100 ppm,33.3%
same,Germination inhibition (%),[1]; 100 ppm,30%
same,Fresh weight inhibition (%),[1]; 1000 ppm,100%
same,Germination inhibition (%),[1]; 1000 ppm,100%
same,Inhibition of chlorophyll content (%),[2]; 1 ppm,27.0%
same,Visual injury symptoms (%),[2]; 1 ppm,20%
same,Inhibition of chlorophyll content (%),[2]; 3.3 ppm,52.3%
same,Visual injury symptoms (%),[2]; 3.3 ppm,50%
same,Inhibition of chlorophyll content (%),[2]; 10 ppm,85.8%
same,Visual injury symptoms (%),[2]; 10 ppm,70%
same,Inhibition of chlorophyll content (%),[2]; 33 ppm,95.6%
same,Visual injury symptoms (%),[2]; 33 ppm,90%
same,Inhibition of chlorophyll content (%),[2]; 100 ppm,98.9%
same,Visual injury symptoms (%),[2]; 100 ppm,95%
same,Fresh weight inhibition (%),[3]; 4 ppm,0%
same,Germination inhibition (%),[3]; 4 ppm,0%
same,Fresh weight inhibition (%),[3]; 20 ppm,0%
same,Germination inhibition (%),[3]; 20 ppm,0%
same,Fresh weight inhibition (%),[3]; 100 ppm,48.4%
same,Germination inhibition (%),[3]; 100 ppm,70%
same,Fresh weight inhibition (%),[3]; 1000 ppm,100%
same,Germination inhibition (%),[3]; 1000 ppm,100%
C=C[C@]1(C)CC[C@@H]2C(=C[C@H]3OC(=O)[C@]4(C)[C@H]3[C@]23CC[C@@]4(O)OC3)C1 [Momilactone B],inhibition of germination of all tested weed species,[4],completely inhibited
same,inhibition of growth of all tested weed species,[4],completely inhibited
same,Fresh weight inhibition (%),Cyperus difformis L.; 4 ppm,15%
same,Germination inhibition (%),Cyperus difformis L.; 4 ppm,23.3%
same,Fresh weight inhibition (%),Cyperus difformis L.; 20 ppm,100%
same,Germination inhibition (%),Cyperus difformis L.; 20 ppm,100%
same,Fresh weight inhibition (%),Cyperus difformis L.; 100 ppm,100%
same,Germination inhibition (%),Cyperus difformis L.; 100 ppm,100%
same,Fresh weight inhibition (%),Cyperus difformis L.; 1000 ppm,100%
same,Germination inhibition (%),Cyperus difformis L.; 1000 ppm,100%
same,Fresh weight inhibition (%),[1]; 4 ppm,12.5%
same,Germination inhibition (%),[1]; 4 ppm,15%
same,Fresh weight inhibition (%),[1]; 20 ppm,100%
same,Germination inhibition (%),[1]; 20 ppm,100%
same,Fresh weight inhibition (%),[1]; 100 ppm,100%
same,Germination inhibition (%),[1]; 100 ppm,100%
same,Fresh weight inhibition (%),[1]; 1000 ppm,100%
same,Germination inhibition (%),[1]; 1000 ppm,100%
same,Inhibition of chlorophyll content (%),[2]; 1 ppm,33.9%
same,Visual injury symptoms (%),[2]; 1 ppm,20%
same,Inhibition of chlorophyll content (%),[2]; 3.3 ppm,91.9%
same,Visual injury symptoms (%),[2]; 3.3 ppm,70%
same,Inhibition of chlorophyll content (%),[2]; 10 ppm,98.3%
same,Visual injury symptoms (%),[2]; 10 ppm,98%
same,Inhibition of chlorophyll content (%),[2]; 33 ppm,100%
same,Visual injury symptoms (%),[2]; 33 ppm,100%
same,Visual injury symptoms (%),"[2]; 33 ppm, listed as momilactone B",complete death
same,Inhibition of chlorophyll content (%),[2]; 100 ppm,100%
same,Visual injury symptoms (%),[2]; 100 ppm,100%
same,Visual injury symptoms (%),"[2]; 100 ppm, listed as momilactone B",complete death
same,inhibition of the growth of rice seedlings,rice seedlings,inhibiting the growth of rice seedlings
same,Fresh weight inhibition (%),[3]; 4 ppm,23.3%
same,Germination inhibition (%),[3]; 4 ppm,100%
same,Fresh weight inhibition (%),[3]; 20 ppm,100%
same,Germination inhibition (%),[3]; 20 ppm,100%
same,Fresh weight inhibition (%),[3]; 100 ppm,100%
same,Germination inhibition (%),[3]; 100 ppm,100%
same,Fresh weight inhibition (%),[3]; 1000 ppm,100%
same,Germination inhibition (%),[3]; 1000 ppm,100%
acetyl momilactone B,inhibition of the growth of rice roots,rice roots,strongest inhibitory activity
same,inhibition of the germination of lettuce seeds,lettuce seeds,strongest inhibitory activity
